Consider three compounds from US5444087A, “Manumycin compounds” (Bristol-Myers Squibb Company, priority 1993, dated 1995).

In series [1] the test system is Staphylococcus aureus A9537. The experiment in a line: MIC by broth dilution assay, S. aureus A9537. The class given is cell-based. The settings on record: serial broth dilution, nutrient broth. (In general: Dilution methods test growth across graded concentrations, often in twofold steps.)
The subject of series [2] is Staphylococcus aureus A9606. The experiment in a line: MIC by broth dilution assay, S. aureus A9606. The class given is cell-based. The settings on record: serial broth dilution, nutrient broth.
In series [3] the test system is Staphylococcus epidermidis A24548. The series can be described thus: MIC by broth dilution assay, S. epidermidis A24548. The format is cell-based. Particulars: serial broth dilution, nutrient broth.
The next series concerns Bacillus subtilis A9506. The experiment in a line: MIC by broth dilution assay, B. subtilis A9506. Particulars: serial broth dilution, nutrient broth. The class given is cell-based.
Series [4] deals with Salmonella typhimurium A27908. The experiment in a line: MIC by broth dilution assay, S. typhimurium A27908. The class given is cell-based. The settings on record: Salmonella enterica, serial broth dilution, nutrient broth.
For the next series, the system named is Micrococcus luteus A9852. The experiment in a line: MIC by broth dilution assay, M. luteus A9852. The format is cell-based. The settings on record: serial broth dilution, nutrient broth.
The next series concerns M. luteus A21349. The experiment in a line: MIC by broth dilution assay, M. luteus A21349. The settings on record: Micrococcus luteus, serial broth dilution, nutrient broth. The format is cell-based.
The next series deals with Escherichia coli SGB888. The experiment in a line: MIC by broth dilution assay, E. coli SGB888. The class given is cell-based. Particulars: serial broth dilution, nutrient broth.
Another series relates to Proteus mirabilis A9900. The series can be described thus: MIC by broth dilution assay, P. mirabilis A9900. The class given is cell-based. The settings on record: serial broth dilution, nutrient broth.
Series [5] has as its system Klebsiella pnneumoniae A9664. The series can be described thus: MIC by broth dilution assay, K. pneumoniae A9664. The format is cell-based. The settings on record: serial broth dilution, nutrient broth.
Series [6] deals with Enterobacter cloacae A9656. The experiment in a line: MIC by broth dilution assay, E. cloacae A9656. The class given is cell-based. Particulars: serial broth dilution, nutrient broth.
Series [7] has as its system Pseudomonas aeruginosa A9843. The experiment in a line: MIC by broth dilution assay, P. aeruginosa A9843. The class given is cell-based. Particulars: serial broth dilution, nutrient broth.
For series [8], the target named is farnesylation of Ras protein p21 (protein-cysteine farnesyltransferase). The series can be described thus: Inhibition of farnesylation of Ras protein p21 (assay of Manne et al.). The format is biochemical. Particulars: assay described by Manne et al. (1990); read-out: IC50 value in inhibiting the farnesylation of Ras protein p21.
The nature of the next series: Solubility. The format is physicochemical.

Values after ≈ are worked out from the molar mass of the structure shown.

Take `CC(C)CC/C=C/C=C/C=C/C(=O)NC1=CC(O)(/C=C/C=C/C=C/C(=O)NC2=C(O)CCC2=O)C2OC2C1=O` (stereo not drawn) [Manumycin C, 2,4,6-heptatrienenamide, 7-isopentyl-N-[5-hydroxy-5-[7-[2-hydroxy-5-oxo-1-cyclopenten-1-yl-amino]-7-oxo-1,3,5-heptatrienyl]-2-oxo-7-oxabicyclo[4.1.0]hept-3-en-yl]-, (all-E)-]: the minimum inhibitory concentration (MIC) (usually the lowest concentration found to suppress growth) was 2 µg/mL (≈ 3.74 µM) in series [1]; 4 µg/mL (≈ 7.48 µM) in series [2]; 2 µg/mL (≈ 3.74 µM) in [3]; 1 µg/mL (≈ 1.87 µM) in the series on Bacillus subtilis A9506; 2 µg/mL (≈ 3.74 µM) in series [4]; 8 µg/mL (≈ 15 µM) with Micrococcus luteus A9852. Also, the MIC against M. luteus A21349 is 4 µg/mL (≈ 7.48 µM); against Escherichia coli SGB888, 0.32 µg/mL (≈ 0.599 µM); against Proteus mirabilis A9900 it was 128 µg/mL (≈ 239 µM); in series [5], 128 µg/mL (≈ 239 µM); in series [6], 128 µg/mL (≈ 239 µM); in series [7] it was 64 µg/mL (≈ 120 µM). For the same compound, in series [8], the IC50 (commonly the concentration that gives 50% inhibition) is 100 µM. Also, the solubility in acetone entry in “Solubility” is reported as “soluble”. The solubility in acetonitrile result in “Solubility” was “soluble”. The “solubility in dimethyl sulfoxide” value in the series “Solubility” is “soluble”. Moreover, in “Solubility”, the solubility in hexane entry was “insoluble”. Further, the solubility in water result in “Solubility” is on record as “insoluble”.

On to `O=C(/C=C/C=C/C=C/C1CCCCC1)NC1=CC(O)(/C=C/C=C/C=C/C(=O)NC2=C(O)CCC2=O)C2OC2C1=O` (stereo not drawn) [Manumycin D, 2,4,6-heptatrienenamide, 7-cyclohexyl-N-[5-hydroxy-5-[7-[2-hydroxy-5-oxo-1-cyclopenten-1-yl-amino]-7-oxo-1,3,5-heptatrienyl]-2-oxo-7-oxabicyclo[4.1.0]hept-3-en-yl]-, (all-E)-], for which the MIC in [1] stood at 1 µg/mL (≈ 1.83 µM); in series [2] it was 2 µg/mL (≈ 3.66 µM); in series [3] it was 1 µg/mL (≈ 1.83 µM); in the series with Bacillus subtilis A9506, 0.5 µg/mL (≈ 0.915 µM); in [4], 0.5 µg/mL (≈ 0.915 µM); in the series with Micrococcus luteus A9852, 2 µg/mL (≈ 3.66 µM). Further, the MIC amounted to 1 µg/mL (≈ 1.83 µM) against M. luteus A21349; 0.1 µg/mL (≈ 0.183 µM) with Escherichia coli SGB888; 128 µg/mL (≈ 234 µM) against Proteus mirabilis A9900; 128 µg/mL (≈ 234 µM) in series [5]; 128 µg/mL (≈ 234 µM) in series [6]; 128 µg/mL (≈ 234 µM) in [7]. The half-inhibitory concentration (IC50) in series [8] is 92.5 µM. Moreover, the solubility in acetone result in the series “Solubility” is on record as “soluble”. Besides, the solubility in acetonitrile result in the series “Solubility” is “soluble”. Moreover, in “Solubility”, the “solubility in dimethyl sulfoxide” value is “soluble”. In addition, the solubility in hexane entry in the series “Solubility” is listed as “insoluble”. Moreover, the solubility in water entry in “Solubility” is “insoluble”.

For the compound `CC(C)/C=C/C=C/C=C/C(=O)NC1=CC(O)(/C=C/C=C/C=C/C(=O)NC2=C(O)CCC2=O)C2OC2C1=O` (stereo not drawn) [Manumycin E, 2,4,6-heptatrienenamide, 7-isopropyl-N-[5-hydroxy-5-[7-[2-hydroxy-5-oxo-1-cyclopenten-1-yl-amino]-7-oxo-1,3,5-heptatrienyl]-2-oxo-7-oxabicyclo[4.1.0]hept-3-en-yl]-, (all-E)-], the MIC in series [1] was 8 µg/mL (≈ 15.8 µM); in series [2], 8 µg/mL (≈ 15.8 µM); in series [3], 8 µg/mL (≈ 15.8 µM); in the series on Bacillus subtilis A9506, 8 µg/mL (≈ 15.8 µM); in series [4] it was 32 µg/mL (≈ 63.2 µM); against Micrococcus luteus A9852 it was 16 µg/mL (≈ 31.6 µM). For the same compound, the MIC in the series on M. luteus A21349 worked out at 16 µg/mL (≈ 31.6 µM); against Escherichia coli SGB888 it was 2.5 µg/mL (≈ 4.94 µM); against Proteus mirabilis A9900 it was 128 µg/mL (≈ 253 µM); in series [5], 128 µg/mL (≈ 253 µM); in series [6], 128 µg/mL (≈ 253 µM); in series [7], 128 µg/mL (≈ 253 µM). Further, the IC50 in series [8] is 120 µM. Also, the solubility in acetone result in “Solubility” is reported as “soluble”. The solubility in acetonitrile result in “Solubility” is “soluble”. The “solubility in dimethyl sulfoxide” value in “Solubility” is listed as “soluble”. In addition, the solubility in hexane entry in the series “Solubility” is “insoluble”. The solubility in water result in the series “Solubility” is on record as “insoluble”.
